Columns and labels:
[1] = target: Sigma non-opioid intracellular receptor 1 (Homo sapiens, UniProt Q99720); test: Binding affinity to sigma 1 receptor (unknown origin)
[2] = target: Sigma intracellular receptor 2 (Homo sapiens, UniProt Q5BJF2); test: Binding affinity to sigma 2 receptor (unknown origin)
Sigma intracellular receptor 2, sequence (Q5BJF2 whole entry): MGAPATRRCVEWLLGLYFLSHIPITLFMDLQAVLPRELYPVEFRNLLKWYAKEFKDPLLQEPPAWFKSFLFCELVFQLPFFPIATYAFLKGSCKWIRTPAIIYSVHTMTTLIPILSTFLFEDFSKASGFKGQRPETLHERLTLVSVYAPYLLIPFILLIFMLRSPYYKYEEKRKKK

Sigma non-opioid intracellular receptor 1, sequence (Q99720 whole entry): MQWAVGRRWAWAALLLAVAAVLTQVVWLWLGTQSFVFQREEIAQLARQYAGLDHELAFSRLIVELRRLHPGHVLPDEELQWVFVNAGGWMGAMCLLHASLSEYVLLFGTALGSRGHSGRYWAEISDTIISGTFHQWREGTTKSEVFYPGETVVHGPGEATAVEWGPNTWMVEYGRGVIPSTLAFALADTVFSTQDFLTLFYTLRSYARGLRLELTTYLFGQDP

Row | SMILES | Ki [1] [nM] | Ki [2] [nM]
1 | O=C(c1nn(-c2ccccc2)c2c1CC(NCCc1ncc[nH]1)CC2)N1CCCCC1 (stereo not given) | 1000 | < 1000
2 | CCCn1nc(C(=O)Nc2cccc(OC)c2)c2c1CCC(NCCc1ccncc1)C2 (stereo not given) | 1000 | < 1000
3 | O=C(c1nn(-c2ccccc2)c2c1CC(N1CCc3ccccc3C1)CC2)N1CCCCC1 (stereo not given) | 1000 | 1000
4 | CCCn1nc(C(=O)N2CCCCC2)c2c1CCN(CCc1cccc(C(F)(F)F)c1)C2 | 1000 | < 1000
5 | O=C(c1nn(-c2ccccc2)c2c1CC(NCC1CCOCC1)CC2)N1CCCCC1 (stereo not given) | < 1000 | < 1000
6 | CCCn1nc(C(=O)N2CCCCC2)c2c1CCN(CCc1ccc(F)cc1)C2 | < 1000 | 1000

Other lines, results leading:

Row | Ki [1] [nM] | Ki [2] [nM] | SMILES
7 | 1000 | < 1000 | N#Cc1ccc(CCNC2CCc3nn4c(c3C2)C(=O)NCCC4)cc1 (stereo not given)
8 | 1000 | 1000 | CN1CCn2nc3c(c2C1=O)CC(NCc1ccc(F)cc1)CC3 (stereo not given)
9 | < 1000 | < 1000 | N#Cc1ccc(CCNC2CCc3c(c(C(=O)N4CCCCC4)nn3-c3ccccc3)C2)cc1 (stereo not given)
10 | 1000 | 1000 | O=C1NCCn2nc3c(c21)CC(NCCc1ccc2c(c1)OCO2)CC3 (stereo not given)
